pIC50: −log10 of the molar value.

The test system of the first assay is SK-CO-1 cells. The assay can be described thus: SK-CO-1 CTG proliferation assay (120 h) (CRC, G12V). The class given is cell-based.
Settings: not given
The method, then: (§1) SK—CO-1 cells (ATCC HTB-39) are dispensed into black 384-well plates, flat and clear bottom (Greiner, PNr. 781091) at a density of 500 cells per well in 60 μl EMEM (Sigma M5650)+10% FCS (fetal calf serum, HyClone, SH30084.03). Cells are incubated overnight at 37° C. in a humidified tissue culture incubator at 5% CO2. Compounds (10 mM stock in DMSO) are added at logarithmic dose series using the ECHO acoustic liquid handler system (Beckman Coulter), normalizing for added DMSO and including DMSO controls. All compound treatments are performed in technical duplicates. For the TO time point measurement, untreated cells are analyzed at the time of compound addition. Plates are incubated for 120 h, and cell viability is measured using CellTiter-Glo luminescent cell viability reagent (Promega product code G7570). Viability (stated as percent of control) is defined as relative luminescence units RLU of each well divided by the RLU of cells in DMSO controls. IC50 values are determined from viability measurements by non-linear regression using a four-parameter model.
(§2) IC50 values of representative compounds according to the invention measured with these assays in the indicated cell lines are presented in Table 46.
With `C[C@H](Oc1nc(-c2noc3c2CCC[C@@]32CCCc3sc(N)c(C#N)c32)nc2c1CC[C@]21CNCCO1)[C@@H]1C[C@@H](F)CN1C` [II-20], the pIC50 – broadly, −log10 of the IC50, conventionally taken in molar units – was 6.83.

The assay is the same for the next values; noted with them: Homo sapiens.
`CC(C)n1c(=O)n([C@@H]2CCOC2)c2nc(-c3onc4c3CCC[C@@]43CCCc4sc(N)c(C#N)c43)nc(O[C@@H](C)[C@@H]3CCCN3C)c21` [I-32] gave a pIC50 of 7.37.
On the same count and under the same terms, then `C[C@H](Oc1nc(-c2onc3c2CCC[C@@]32CCCc3sc(N)c(C#N)c32)nc2c1n(C)c(=O)n2[C@@H]1CC2CCC1O2)[C@@H]1CCCN1C` (stereo partly shown) [I-18], with 6.44; and `C[C@H](Oc1nc(-c2onc3c2CCC[C@@]32CCCc3sc(N)c(C#N)c32)nc2c1n(C)c(=O)n2[C@@H]1CCOC1)[C@@H]1CCCN1C` [I-20], with 8.52; and `C[C@H](Oc1nc(-c2noc3c2CCC[C@@]32CCCc3sc(N)c(C#N)c32)nc2c1n(C)c(=O)n2[C@H]1CO[C@@H](C)C1)[C@@H]1CCCN1C` [II-5], with 9.00.
With `CO[C@H]1C[C@@H]([C@H](C)Oc2nc(-c3onc4c3CCC[C@@]43CCCc4sc(N)c(C#N)c43)nc3c2n(C)c(=O)n3[C@@H]2CCOC2)N(C)C1` [I-2], the pIC50 is 7.37.
Consider `Cc1nn([C@@H]2CCOC2)c2nc(-c3onc4c3CCC[C@@]43CCCc4sc(N)c(C#N)c43)nc(O[C@@H](C)[C@@H]3CCCN3C)c12` [I-42], for which the pIC50 was 7.34.
Still for that read-out and setting: next, `CO[C@@H]1C[C@@H]([C@H](C)Oc2nc(-c3noc4c3CCC[C@@]43CCCc4sc(N)c(C#N)c43)nc3c2CN(C2COC2)C[C@]32CCOC2)N(C)C1` [II-14]: 8.22; `C[C@H](Oc1nc(-c2onc3c2CCC[C@@]32CCCc3sc(N)c(C#N)c32)nc2c1n(C)c(=O)n2C1COC1)[C@@H]1CCCN1C` [I-24]: 7.12.
The molecule `CCn1c(=O)n([C@@H]2CCCOC2)c2nc(-c3onc4c3CCC[C@@]43CCCc4sc(N)c(C#N)c43)nc(OCC3(CN4CCCC4)CC3)c21` [I-35] showed a pIC50 of 6.73.
Same read-out and setting: next, `Cc1nc2c(O[C@@H](C)[C@@H]3CCCN3C)nc(-c3onc4c3CCC[C@@]43CCCc4sc(N)c(C#N)c43)nc2n1[C@@H]1CCOC1` [I-39]: 7.85; `CO[C@@H]1C[C@@H]([C@H](C)Oc2nc(-c3onc4c3CCC[C@@]43CCCc4sc(N)c(C#N)c43)nc3c2CN(C2COC2)C[C@]32CCOC2)N(C)C1` [I-58]: 8.05.
On the same count and under the same terms, next, `COCCn1c(=O)n([C@@H]2CCOC2)c2nc(-c3onc4c3CCC[C@@]43CCCc4sc(N)c(C#N)c43)nc(O[C@@H](C)[C@@H]3CCCN3C)c21` [I-1]: 8.10.
Still for that read-out and setting: next, `C[C@H](Oc1nc(-c2onc3c2CCC[C@@]32CCCc3sc(N)c(C#N)c32)nc2c1n(C)c(=O)n2[C@@]12COC[C@@H]1C2)[C@@H]1CCCN1C` [I-29]: 9.00.

Another assay relates to NCI-H727 cells. In words: NCI-H727 CTG proliferation assay (120 h) (lung cancer, G12V). The assay is classed as cell-based. The conditions noted are these: Homo sapiens. The method, then:
as §1, with “NCI-H727” for “SK—CO-1”, “No. CRL-5815)” for “HTB-39)”, “RPMI ATCC-Formulation (PAN P04-18047)+10%” for “EMEM (Sigma M5650)+10%”
as §2
The molecule `CC(C)n1c(=O)n([C@@H]2CCOC2)c2nc(-c3onc4c3CCC[C@@]43CCCc4sc(N)c(C#N)c43)nc(O[C@@H](C)[C@@H]3CCCN3C)c21` [I-32] showed a pIC50 of 8.40.
`C[C@H](Oc1nc(-c2onc3c2CCC[C@@]32CCCc3sc(N)c(C#N)c32)nc2c1n(C)c(=O)n2[C@@H]1CC2CCC1O2)[C@@H]1CCCN1C` (stereo partly shown) [I-18] had a negative logarithm of the IC50 (pIC50) of 6.77.
Regarding `C[C@H](Oc1nc(-c2onc3c2CCC[C@@]32CCCc3sc(N)c(C#N)c32)nc2c1n(C)c(=O)n2[C@@H]1CCOC1)[C@@H]1CCCN1C` [I-20], the negative-log IC50 (pIC50) is 8.70.
For `CO[C@H]1C[C@@H]([C@H](C)Oc2nc(-c3onc4c3CCC[C@@]43CCCc4sc(N)c(C#N)c43)nc3c2n(C)c(=O)n3[C@@H]2CCOC2)N(C)C1` [I-2], the pIC50 was 7.85. Against the preceding molecule, the pIC50 is 0.85 log units lower.
Still for that read-out and setting: then `Cc1nn([C@@H]2CCOC2)c2nc(-c3onc4c3CCC[C@@]43CCCc4sc(N)c(C#N)c43)nc(O[C@@H](C)[C@@H]3CCCN3C)c12` [I-42], with 7.41; and `CO[C@@H]1C[C@@H]([C@H](C)Oc2nc(-c3noc4c3CCC[C@@]43CCCc4sc(N)c(C#N)c43)nc3c2CN(C2COC2)C[C@]32CCOC2)N(C)C1` [II-14], with 8.52; and `C[C@H](Oc1nc(-c2onc3c2CCC[C@@]32CCCc3sc(N)c(C#N)c32)nc2c1n(C)c(=O)n2C1COC1)[C@@H]1CCCN1C` [I-24], with 7.46.
Turning to `CCn1c(=O)n([C@@H]2CCCOC2)c2nc(-c3onc4c3CCC[C@@]43CCCc4sc(N)c(C#N)c43)nc(OCC3(CN4CCCC4)CC3)c21` [I-35], the negative logarithm of the IC50 (pIC50) is 6.80.
On the same count and under the same terms, then `Cc1nc2c(O[C@@H](C)[C@@H]3CCCN3C)nc(-c3onc4c3CCC[C@@]43CCCc4sc(N)c(C#N)c43)nc2n1[C@@H]1CCOC1` [I-39], with 7.55; and `CO[C@@H]1C[C@@H]([C@H](C)Oc2nc(-c3onc4c3CCC[C@@]43CCCc4sc(N)c(C#N)c43)nc3c2CN(C2COC2)C[C@]32CCOC2)N(C)C1` [I-58], with 8.30.
`COCCn1c(=O)n([C@@H]2CCOC2)c2nc(-c3onc4c3CCC[C@@]43CCCc4sc(N)c(C#N)c43)nc(O[C@@H](C)[C@@H]3CCCN3C)c21` [I-1] showed a negative-log IC50 (pIC50) of 8.00.
Consider `C[C@H](Oc1nc(-c2onc3c2CCC[C@@]32CCCc3sc(N)c(C#N)c32)nc2c1n(C)c(=O)n2[C@@]12COC[C@@H]1C2)[C@@H]1CCCN1C` [I-29], for which the pIC50 is 9.00. Compared with the last molecule, the pIC50 is 1.00 log units higher.

The next assay has as its system Ba/F3 cells KRAS G12D. In words: Ba/F3 proliferation assay (KRAS G12D). The class given is cell-based. The conditions noted are these: 72 h, AlamarBlue viability. As to the method: Ba/F3 cells are ordered from DSMZ (ACC300, Lot17) and grown in RPMI-1640 (ATCC 30-2001)+10% FCS+10 ng/mL IL-3 at 37° C. in 5% […] atmosphere. Plasmids containing KRASG12 mutants (i.e. […], G12C, G12V) are obtained from GeneScript. To generate KRASG12-dependent Ba/F3 models, Ba/F3 cells are transduced with retroviruses containing vectors that harbor KRASG12 isoforms. Platinum-E cells (Cell Biolabs) are used for retrovirus packaging. Retrovirus is added to Ba/F3 cells. To ensure infection, 4 μg/mL polybrene is added and cells are spinfected. Infection efficiency is confirmed by measuring GFP-positive cells using a cell analyzer. Cells with an infection efficiency of 10% to 20% are further cultivated and puromycin selection with 1 μg/mL is initiated. As a control, parental Ba/F3 cells are used to show selection status. Selection is considered successful when parental Ba/F3 cells cultures died. To evaluate the transforming potential of KRASG12 mutations, the growth medium is no longer supplemented with IL-3. Ba/F3 cells harboring the empty vector are used as a control. Approximately ten days before conducting the experiments, puromycin is left out.
For proliferation assays, Ba/F3 cells are seeded into 384-well plates at 1.5×1 (M cells/60 μL in growth media (RPMI-1640+10% FCS). Compounds (10 mM stock in DMSO) are added at logarithmic dose series using the ECHO acoustic liquid handler system (Beckman Coulter), normalizing for added DMSO and including DMSO controls. All compound treatments are performed in technical duplicates. For the TO time point measurement, untreated cells are analyzed at the time of compound addition. Treated cells are incubated for 72 h at 37° C. with 5% CO2 and cell viability is measured in the PerkinElmer Envision Multimode Reader using AlamarBlue™ (ThermoFisher) viability stain. Viability (stated as percent of control) is defined as relative fluorescence units RFU of each well divided by the RFU of cells in DMSO controls. IC50 values are determined from viability measurements by non-linear regression using a four-parameter model.
(In general: Alamar Blue is a resazurin reagent that responds to reducing activity.)
`C[C@H](Oc1nc(-c2noc3c2CCC[C@@]32CCCc3sc(N)c(C#N)c32)nc2c1CC[C@]21CNCCO1)[C@@H]1C[C@@H](F)CN1C` [II-20]: the negative logarithm of the IC50 (pIC50) was 7.35.

The same assay, now with this note: Mus musculus, BaF3, 72 h, AlamarBlue viability.
As for `CC(C)n1c(=O)n([C@@H]2CCOC2)c2nc(-c3onc4c3CCC[C@@]43CCCc4sc(N)c(C#N)c43)nc(O[C@@H](C)[C@@H]3CCCN3C)c21` [I-32], the pIC50 is 7.24.
Take `C[C@H](Oc1nc(-c2onc3c2CCC[C@@]32CCCc3sc(N)c(C#N)c32)nc2c1n(C)c(=O)n2[C@@H]1CC2CCC1O2)[C@@H]1CCCN1C` (stereo partly shown) [I-18]: the pIC50 is 6.74. Compared with the last molecule, the pIC50 is 0.50 log units lower.
In turn, `C[C@H](Oc1nc(-c2onc3c2CCC[C@@]32CCCc3sc(N)c(C#N)c32)nc2c1n(C)c(=O)n2[C@@H]1CCOC1)[C@@H]1CCCN1C` [I-20] showed a pIC50 of 8.05.
`C[C@H](Oc1nc(-c2noc3c2CCC[C@@]32CCCc3sc(N)c(C#N)c32)nc2c1n(C)c(=O)n2[C@H]1CO[C@@H](C)C1)[C@@H]1CCCN1C` [II-5] showed a negative logarithm of the IC50 (pIC50) of 8.70.
The same measure, in the same setting: then `CO[C@H]1C[C@@H]([C@H](C)Oc2nc(-c3onc4c3CCC[C@@]43CCCc4sc(N)c(C#N)c43)nc3c2n(C)c(=O)n3[C@@H]2CCOC2)N(C)C1` [I-2], with 7.05; and `Cc1nn([C@@H]2CCOC2)c2nc(-c3onc4c3CCC[C@@]43CCCc4sc(N)c(C#N)c43)nc(O[C@@H](C)[C@@H]3CCCN3C)c12` [I-42], with 7.43; and `CO[C@@H]1C[C@@H]([C@H](C)Oc2nc(-c3noc4c3CCC[C@@]43CCCc4sc(N)c(C#N)c43)nc3c2CN(C2COC2)C[C@]32CCOC2)N(C)C1` [II-14], with 7.96.
Still for that read-out and setting: then `C[C@H](Oc1nc(-c2onc3c2CCC[C@@]32CCCc3sc(N)c(C#N)c32)nc2c1n(C)c(=O)n2C1COC1)[C@@H]1CCCN1C` [I-24], with 6.87; and `CCn1c(=O)n([C@@H]2CCCOC2)c2nc(-c3onc4c3CCC[C@@]43CCCc4sc(N)c(C#N)c43)nc(OCC3(CN4CCCC4)CC3)c21` [I-35], with 6.39; and `Cc1nc2c(O[C@@H](C)[C@@H]3CCCN3C)nc(-c3onc4c3CCC[C@@]43CCCc4sc(N)c(C#N)c43)nc2n1[C@@H]1CCOC1` [I-39], with 7.62.
Still for that read-out and setting: next, `CO[C@@H]1C[C@@H]([C@H](C)Oc2nc(-c3onc4c3CCC[C@@]43CCCc4sc(N)c(C#N)c43)nc3c2CN(C2COC2)C[C@]32CCOC2)N(C)C1` [I-58]: 7.66.
`COCCn1c(=O)n([C@@H]2CCOC2)c2nc(-c3onc4c3CCC[C@@]43CCCc4sc(N)c(C#N)c43)nc(O[C@@H](C)[C@@H]3CCCN3C)c21` [I-1]: the negative logarithm of the IC50 (pIC50) was 7.44.
`C[C@H](Oc1nc(-c2onc3c2CCC[C@@]32CCCc3sc(N)c(C#N)c32)nc2c1n(C)c(=O)n2[C@@]12COC[C@@H]1C2)[C@@H]1CCCN1C` [I-29] showed a negative logarithm of the IC50 (pIC50) of 7.85.

(Values after US20250019385A1, “SPIROCYCLIC ANNULATED 2-AMINO-3-CYANO THIOPHENES AND DERIVATIVES FOR THE TREATMENT OF CANCER” (Boehringer Ingelheim International GmbH, priority 2023, published 2025).)
